Assay results: US20230072683A1, “PYRIDO-PYRIMIDIN DERIVATIVES AND PHARMACEUTICAL COMPOSITION, FOR USE IN PREVENTING OR TREATING PI3 KINASE RELATED DISEASES, COMPRISING SAME AS ACTIVE INGREDIENT” (BORYUNG PHARMACEUTICAL CO., LTD, priority 2019, published 2023)

Key:
[1] = target: PI3K-δ (PI3K(p1108/p857) (h)) (Homo sapiens, UniProt O00329); experiment: Evaluation of inhibitory activity against PI3K-δ (HTRF kinase assay); format: biochemical; conditions: compound concentration 0.01 μM; read-out: EXP_VALUE(% Inhibition) PI3K-δ 0.01 μM
How it was run: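 HTRF read-out (665/620 nm ratio ×10000) used Eu-labelled anti-GST, GST-tagged GRP1 PH domain and streptavidin-allophycocyanin after EDTA/PIP3 stop.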

DNA-PK(h) = DNA-PK(h) (Homo sapiens, UniProt P78527); experiment: Evaluation of inhibitory activity against DNA-PK (HTRF kinase assay, GST-cMyc-p53 substrate); format: biochemical; conditions: compound concentration 0.01 μM; read-out: EXP_VALUE(% Inhibition) DNA-PK(h) 0.01 μM
How it was run: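 Human DNA-PK with 50 μM GST-cMyc-p53 substrate; reaction started with Mg/ATP, run 30 min at room temperature, stopped with EDTA. Phospho-Ser15 p53 detected by HTRF (Eu anti-phospho-Ser15, d2 anti-GST), signal = 10000×(Em 665/Em 620).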

Chain of PI3K-δ (PI3K(p1108/p857) (h)) (O00329 whole entry, the tested form may be a part): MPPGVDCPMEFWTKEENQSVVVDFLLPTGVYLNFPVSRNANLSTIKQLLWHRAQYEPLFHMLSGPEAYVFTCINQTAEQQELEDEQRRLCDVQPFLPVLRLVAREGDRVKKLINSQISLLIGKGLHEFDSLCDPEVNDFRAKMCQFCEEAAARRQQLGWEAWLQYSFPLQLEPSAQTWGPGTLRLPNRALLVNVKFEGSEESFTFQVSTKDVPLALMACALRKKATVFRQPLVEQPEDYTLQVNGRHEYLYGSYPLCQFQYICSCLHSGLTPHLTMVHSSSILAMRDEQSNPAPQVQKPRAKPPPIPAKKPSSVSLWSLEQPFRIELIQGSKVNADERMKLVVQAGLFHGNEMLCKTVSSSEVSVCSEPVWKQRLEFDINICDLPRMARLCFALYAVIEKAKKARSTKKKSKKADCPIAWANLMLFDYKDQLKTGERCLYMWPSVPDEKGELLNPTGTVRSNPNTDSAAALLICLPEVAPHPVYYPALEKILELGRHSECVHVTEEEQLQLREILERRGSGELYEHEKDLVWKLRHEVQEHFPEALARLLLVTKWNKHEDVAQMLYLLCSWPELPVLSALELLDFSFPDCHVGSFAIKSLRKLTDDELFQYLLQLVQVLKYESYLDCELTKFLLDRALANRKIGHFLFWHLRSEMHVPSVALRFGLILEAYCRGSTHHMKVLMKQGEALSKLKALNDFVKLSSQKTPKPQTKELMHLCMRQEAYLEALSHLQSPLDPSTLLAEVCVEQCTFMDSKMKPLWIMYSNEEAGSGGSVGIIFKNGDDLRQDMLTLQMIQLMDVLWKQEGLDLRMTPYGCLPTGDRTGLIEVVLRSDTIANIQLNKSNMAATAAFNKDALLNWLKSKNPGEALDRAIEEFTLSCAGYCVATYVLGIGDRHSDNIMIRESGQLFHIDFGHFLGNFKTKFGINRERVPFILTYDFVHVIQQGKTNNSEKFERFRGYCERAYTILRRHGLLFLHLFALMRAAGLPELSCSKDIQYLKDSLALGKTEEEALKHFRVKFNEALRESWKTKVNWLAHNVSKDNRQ
Chain of PI3K-δ (PI3K(p1108/p857) (h)) (P27986 whole entry partner, the tested form may be a part): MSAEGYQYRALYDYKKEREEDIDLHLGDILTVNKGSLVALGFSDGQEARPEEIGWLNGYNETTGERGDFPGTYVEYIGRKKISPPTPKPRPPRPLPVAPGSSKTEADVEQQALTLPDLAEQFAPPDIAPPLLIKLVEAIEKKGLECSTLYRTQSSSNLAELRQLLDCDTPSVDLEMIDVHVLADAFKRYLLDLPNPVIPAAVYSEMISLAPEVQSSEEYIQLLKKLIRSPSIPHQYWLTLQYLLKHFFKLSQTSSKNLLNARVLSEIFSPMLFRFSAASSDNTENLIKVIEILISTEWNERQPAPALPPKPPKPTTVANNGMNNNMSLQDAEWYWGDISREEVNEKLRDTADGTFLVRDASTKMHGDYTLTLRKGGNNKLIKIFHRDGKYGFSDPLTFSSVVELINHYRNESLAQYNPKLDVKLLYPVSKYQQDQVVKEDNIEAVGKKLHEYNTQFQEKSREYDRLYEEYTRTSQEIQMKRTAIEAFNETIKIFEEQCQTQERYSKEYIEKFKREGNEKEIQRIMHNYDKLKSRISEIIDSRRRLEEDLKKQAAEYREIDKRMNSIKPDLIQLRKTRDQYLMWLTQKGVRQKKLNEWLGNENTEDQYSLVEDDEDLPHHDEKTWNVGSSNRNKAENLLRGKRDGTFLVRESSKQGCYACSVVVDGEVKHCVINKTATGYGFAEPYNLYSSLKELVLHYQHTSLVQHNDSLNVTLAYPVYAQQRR

Structure (SMILES)	inhibition at 0.01 µM [1] [%]	inhibition at 0.01 µM (DNA-PK(h)) [%]
CC(C)S(=O)(=O)c1ccc(-c2cccc3c(Cl)c([C@H](C)Nc4ncnc5[nH]ccc(=O)c45)n(-c4ccccc4)c(=O)c23)cc1 [Example 209, (S)-4-((1-(4-chloro-8-(4-(isopropylsulfonyl)phenyl)-1-oxo-2-phenyl-1,2-dihydroisoquinolin-3-yl)ethyl)amino)pyrido[2,3-d]pyrimidin-5(8H)-one]	67	77
C[C@H](Nc1ncnc2[nH]ccc(=O)c12)c1c(Cl)c2cccc(-c3cncc(N4CCOCC4)n3)c2c(=O)n1-c1ccccc1 [Example 210, (S)-4-((1-(4-chloro-8-(6-morpholinopyrazin-2-yl)-1-oxo-2-phenyl-1,2-dihydroisoquinolin-3-yl)ethyl)amino)pyrido[2,3-d]pyrimidin-5(8H)-one]	73	56
C[C@H](Nc1ncnc2[nH]ccc(=O)c12)c1c(Cl)c2cccc(-c3cnc(N4CCN(C)CC4)cn3)c2c(=O)n1-c1ccccc1 [Example 211, (S)-4-((1-(4-chloro-8-(5-(4-methylpiperazin-1-yl)pyrazin-2-yl)-1-oxo-2-phenyl-1,2-dihydroisoquinolin-3-yl)ethyl)amino)pyrido[2,3-d]pyrimidin-5(8H)-one]	80	55
Cc1nc(N)ncc1-c1cccc2c(Cl)c([C@H](C)Nc3ncnc4[nH]ccc(=O)c34)n(-c3ccccc3)c(=O)c12 [Example 212, (S)-4-((1-(8-(2-amino-4-methylpyrimidin-5-yl)-4-chloro-1-oxo-2-phenyl-1,2-dihydroisoquinolin-3-yl)ethyl)amino)pyrido[2,3-d]pyrimidin-5(8H)-one]	94	57
C[C@H](Nc1ncnc2[nH]ccc(=O)c12)c1c(Cl)c2cccc(-c3cnc4ccccc4c3)c2c(=O)n1-c1ccccc1 [Example 213, (S)-4-((1-(4-chloro-1-oxo-2-phenyl-8-(quinolin-3-yl)-1,2-dihydroisoquinolin-3-yl)ethyl)amino)pyrido[2,3-d]pyrimidin-5(8H)-one]	98	69
CSc1ncc(-c2cccc3c(Cl)c([C@H](C)Nc4ncnc5[nH]ccc(=O)c45)n(-c4ccccc4)c(=O)c23)cn1 [Example 214, (S)-4-((1-(4-chloro-8-(2-(methylthio)pyrimidin-5-yl)-1-oxo-2-phenyl-1,2-dihydroisoquinolin-3-yl)ethyl)amino)pyrido[2,3-d]pyrimidin-5(8H)-one]	99	70
CC(C)c1ncncc1-c1cccc2c(Cl)c([C@H](C)Nc3ncnc4[nH]ccc(=O)c34)n(-c3ccccc3)c(=O)c12 [Example 215, (S)-4-((1-(4-chloro-8-(4-isopropylpyrimidin-5-yl)-1-oxo-2-phenyl-1,2-dihydroisoquinolin-3-yl)ethyl)amino)pyrido[2,3-d]pyrimidin-5(8H)-one]	73	44
C[C@H](Nc1ncnc2[nH]ccc(=O)c12)c1c(Cl)c2cccc(-c3cnc(N4CCN(C)CC4)nc3)c2c(=O)n1-c1ccccc1 [Example 216, (S)-4-((1-(4-chloro-8-(2-(4-methylpiperazin-1-yl)pyrimidin-5-yl)-1-oxo-2-phenyl-1,2-dihydroisoquinolin-3-yl)ethyl)amino)pyrido[2,3-d]pyrimidin-5(8H)-one]	96	75
CCN(CC)c1ncc(-c2cccc3c(Cl)c([C@H](C)Nc4ncnc5[nH]ccc(=O)c45)n(-c4ccccc4)c(=O)c23)cn1 [Example 217, (S)-4-((1-(4-chloro-8-(2-(diethylamino)pyrimidin-5-yl)-1-oxo-2-phenyl-1,2-dihydroisoquinolin-3-yl)ethyl)amino)pyrido[2,3-d]pyrimidin-5(8H)-one]	71	66
C[C@H](Nc1ncnc2[nH]ccc(=O)c12)c1c(Cl)c2cccc(-c3cncc(S(C)(=O)=O)c3)c2c(=O)n1-c1ccccc1 [Example 218, (S)-4-((1-(4-chloro-8-(5-(methylsulfonyl)pyridin-3-yl)-1-oxo-2-phenyl-1,2-dihydroisoquinolin-3-yl)ethyl)amino)pyrido[2,3-d]pyrimidin-5(8H)-one]	99	85
C[C@H](Nc1ncnc2[nH]ccc(=O)c12)c1c(Cl)c2cccc(-c3ccc(S(C)(=O)=O)nc3)c2c(=O)n1-c1ccccc1 [Example 219, (S)-4-((1-(4-chloro-8-(6-(methylsulfonyl)pyridin-3-yl)-1-oxo-2-phenyl-1,2-dihydroisoquinolin-3-yl)ethyl)amino)pyrido[2,3-d]pyrimidin-5(8H)-one]	97	82
CC(C)Nc1ncc(-c2cccc3c(Cl)c([C@H](C)Nc4ncnc5[nH]ccc(=O)c45)n(-c4ccccc4)c(=O)c23)cn1 [Example 220, (S)-4-((1-(4-chloro-8-(2-(isopropylamino)pyrimidin-5-yl)-1-oxo-2-phenyl-1,2-dihydroisoquinolin-3-yl)ethyl)amino)pyrido[2,3-d]pyrimidin-5(8H)-one]	87	73
COc1cnc(-c2cccc3c(Cl)c([C@H](C)Nc4ncnc5[nH]ccc(=O)c45)n(-c4ccccc4)c(=O)c23)cn1 [Example 221, (S)-4-((1-(4-chloro-8-(5-methoxypyrazin-2-yl)-1-oxo-2-phenyl-1,2-dihydroisoquinolin-3-yl)ethyl)amino)pyrido[2,3-d]pyrimidin-5(8H)-one]	67	27
C[C@H](Nc1ncnc2[nH]ccc(=O)c12)c1c(Cl)c2cccc(-c3cnc(N4CCCC4)nc3)c2c(=O)n1-c1ccccc1 [Example 222, (S)-4-((1-(4-chloro-1-oxo-2-phenyl-8-(2-(pyrrolidin-1-yl)pyrimidin-5-yl)-1,2-dihydroisoquinolin-3-yl)ethyl)amino)pyrido[2,3-d]pyrimidin-5(8H)-one]	75	55
C[C@H](Nc1ncnc2[nH]ccc(=O)c12)c1c(Cl)c2cccc(-c3ccc(OC(F)(F)F)nc3)c2c(=O)n1-c1ccccc1 [Example 223, (S)-4-((1-(4-chloro-1-oxo-2-phenyl-8-(6-(trifluoromethoxy)pyridin-3-yl)-1,2-dihydroisoquinolin-3-yl)ethyl)amino)pyrido[2,3-d]pyrimidin-5(8H)-one]	68	34
C[C@H](Nc1ncnc2[nH]ccc(=O)c12)c1c(Cl)c2cccc(-c3cnc(N4CCCCC4)nc3)c2c(=O)n1-c1ccccc1 [Example 224, (S)-4-((1-(4-chloro-1-oxo-2-phenyl-8-(2-(piperidin-1-yl)pyrimidin-5-yl)-1,2-dihydroisoquinolin-3-yl)ethyl)amino)pyrido[2,3-d]pyrimidin-5(8H)-one]	57	19
COc1ncc(-c2cccc3c(Cl)c([C@H](C)Nc4ncnc5[nH]ccc(=O)c45)n(-c4ccccc4)c(=O)c23)cc1NS(C)(=O)=O [Example 225, (S)—N-(5-(4-chloro-1-oxo-3-(1-((5-oxo-5,8-dihydropyrido[2,3-d]pyrimidin-4-yl)amino)ethyl)-2-phenyl-1,2-dihydroisoquinolin-8-yl)-2-methoxypyridin-3-yl)methanesulfonamide]	74	76
C[C@H](Nc1ncnc2[nH]ccc(=O)c12)c1c(Cl)c2cccc(-c3cc[nH]n3)c2c(=O)n1-c1ccccc1 [Example 226, (S)-4-((1-(4-chloro-1-oxo-2-phenyl-8-(1H-pyrazol-3-yl)-1,2-dihydroisoquinolin-3-yl)ethyl)amino)pyrido[2,3-d]pyrimidin-5(8H)-one]	83	56
C[C@H](Nc1ncnc2[nH]ccc(=O)c12)c1c(Cl)c2cccc(-c3cn[nH]c3)c2c(=O)n1-c1ccccc1 [Example 227, (S)-4-((1-(4-chloro-1-oxo-2-phenyl-8-(1H-pyrazol-4-yl)-1,2-dihydroisoquinolin-3-yl)ethyl)amino)pyrido[2,3-d]pyrimidin-5(8H)-one]	93	73
CCNc1ncc(-c2cccc3c(Cl)c([C@H](C)Nc4ncnc5[nH]ccc(=O)c45)n(-c4ccccc4)c(=O)c23)cn1 [Example 228, (S)-4-((1-(4-chloro-8-(2-(ethylamino)pyrimidin-5-yl)-1-oxo-2-phenyl-1,2-dihydroisoquinolin-3-yl)ethyl)amino)pyrido[2,3-d]pyrimidin-5(8H)-one]	88	78
COc1ncc(-c2cccc3c(Cl)c([C@H](C)Nc4ncnc5[nH]ccc(=O)c45)n(-c4ccccc4)c(=O)c23)cc1C#N [Example 229, (S)-5-(4-chloro-1-oxo-3-(1-((5-oxo-5,8-dihydropyrido[2,3-d]pyrimidin-4-yl)amino)ethyl)-2-phenyl-1,2-dihydroisoquinolin-8-yl)-2-methoxynicotinonitrile]	68	45
CCOc1cnc(-c2cccc3c(Cl)c([C@H](C)Nc4ncnc5[nH]ccc(=O)c45)n(-c4ccccc4)c(=O)c23)cn1 [Example 230, (S)-4-((1-(4-chloro-8-(5-ethoxypyrazin-2-yl)-1-oxo-2-phenyl-1,2-dihydroisoquinolin-3-yl)ethyl)amino)pyrido[2,3-d]pyrimidin-5(8H)-one]	76	41
